Measurements published in article PMC7353089, “The Hepatotoxicity of Alantolactone and Germacrone: Their Influence on Cholesterol and Lipid Metabolism in Differentiated HepaRG Cells” (Nutrients, 2020).
Read-outs that look alike come from different tables or passages of the source.

Columns and labels:
[1] = tested on: SREBP-1c mRNA; test: RT-qPCR mRNA expression in dHepaRG cells; format: cell-based, human
Method: (§2) All treatments were performed in triplicates and every experiment was performed three times. The cells were washed twice with ice cold phosphate-buffered saline (PBS), scrapped and stored at −80 °C until use. Total RNA from cells was isolated using TriReagent according to the manufacturer’s instructions (Biotech, Prague, Czech Republic). The purified RNA was dissolved in 40 µL of diethyl pyrocarbonate (DEPC)-treated water (0.01% DEPC in HPLC water, autoclaved) and stored at −80 °C. The measurement of absorbance at 260 and 280 nm using the NanoDrop ND-1000 UV–VIS Spectrophotometer (Thermo Fisher Scientific, Pardubice, Czech Republic) was used to determine RNA yields and purity. Subsequently, the RNA (4 µg) was treated with 2 U of DNase I (New England Biolabs, Ipswich, MA, USA) in a final volume of 30 µL for 25 min at 37 °C, 1.5 µL of 0.1 M ethylenediaminetetraacetic acid was added and the DNAse was inactivated by heat (5 min at 75 °C). […] Fluorescence data were recorded at the end of each amplification step. Relative expression levels of the target genes were calculated as fold changes in triplicates for each group using the 2^−ΔΔCt method [28] by normalization to the geometric mean of the Ct values of Sdha and Ywhaz, which were used as reference genes.

[2] = tested on: PLIN4 mRNA; test: RT-qPCR mRNA expression in dHepaRG cells; format: cell-based, human; settings: single exposure, 6, 12 and 24 h
Method: Three concentrations were selected for each compound (non-toxic, non-toxic/slightly toxic and toxic). The cholesterol level of the dHepaRG cells was measured after a multiple exposure of the highest non-toxic concentrations of tested compounds. […] The expression changes of genes and proteins related to cholesterol metabolism were measured in both single and multiple exposure experiments.
(§3) All treatments were performed in triplicates and every experiment was performed three times. The cells were washed twice with ice cold phosphate-buffered saline (PBS), scrapped and stored at −80 °C until use. Total RNA from cells was isolated using TriReagent according to the manufacturer’s instructions (Biotech, Prague, Czech Republic). The purified RNA was dissolved in 40 µL of diethyl pyrocarbonate (DEPC)-treated water (0.01% DEPC in HPLC water, autoclaved) and stored at −80 °C. The measurement of absorbance at 260 and 280 nm using the NanoDrop ND-1000 UV–VIS Spectrophotometer (Thermo Fisher Scientific, Pardubice, Czech Republic) was used to determine RNA yields and purity. […] Fluorescence data were recorded at the end of each amplification step. Relative expression levels of the target genes were calculated as fold changes in triplicates for each group using the 2^−ΔΔCt method [28] by normalization to the geometric mean of the Ct values of Sdha and Ywhaz, which were used as reference genes.

[3] = tested on: dHepaRG cells; test: MTT cell viability assay; format: cell-based, human; settings: for toxicity toward dHepaRG cells compared with cancer cells: comparison of own IC50 with previously reported IC50 values; for cell viability: 24 and 72 h, MTT method and LDH leakage
Method: Cryopreserved HepaRG cells were obtained from Biopredic International (Rennes, France). Undifferentiated cells were seeded according to the supplier protocols in 96-well plates for the viability assays, and in 6-well plates for the mRNA and western blot measurements. The cells were cultured for two weeks in Williams E Medium with GlutaMAX™ (Invitrogen, Paisley, UK) supplemented with 10% fetal bovine serum, 2 mM glutamine, 100 IU/mL penicillin, 100 μg/mL streptomycin, 5 μg/mL insulin, and 50 μM hydrocortisone hemisuccinate. The cells were afterwards cultured for another 2-week period in the same medium supplemented with 1.7% DMSO. The medium was replaced every 2–3 days.
In the 96-well plates, viability was evaluated using the methylthiazole-tetrazolium (MTT) colorimetric assay. After 24 and 72-h exposure, 25 μL of MTT solution (3 mg of MTT in 1 mL of phosphate buffered saline, PBS) were added to each well. The plates were incubated at 37 °C for an additional 2 h, after which the medium was removed and the formed formazan was dissolved in 50 μL of 0.08 M HCl in isopropanol during 30 min shaking. The absorbance in each well was read at 570 and 690 nm using a spectrophotometer (Tecan Infinite M200, Tecan, Männedorf, Switzerland).

[4] = tested on: CYP3A4 mRNA; test: RT-qPCR mRNA expression in dHepaRG cells; settings: single exposure, also at other than toxic concentrations
Method: The mRNA and protein expression changes were measured after a single administration of ALA and GER. Three concentrations were selected for each compound (non-toxic, non-toxic/slightly toxic and toxic). The cholesterol level of the dHepaRG cells was measured after a multiple exposure of the highest non-toxic concentrations of tested compounds. ATL (30 µM) and GER (100 µM) were administered four times every 24 h. The expression changes of genes and proteins related to cholesterol metabolism were measured in both single and multiple exposure experiments.
All treatments were performed in triplicates and every experiment was performed three times. The cells were washed twice with ice cold phosphate-buffered saline (PBS), scrapped and stored at −80 °C until use. […] The measurement of absorbance at 260 and 280 nm using the NanoDrop ND-1000 UV–VIS Spectrophotometer (Thermo Fisher Scientific, Pardubice, Czech Republic) was used to determine RNA yields and purity. […] Fluorescence data were recorded at the end of each amplification step. Relative expression levels of the target genes were calculated as fold changes in triplicates for each group using the 2^−ΔΔCt method by normalization to the geometric mean of the Ct values of Sdha and Ywhaz, which were used as reference genes.

[5] = tested on: PPARα mRNA; test: RT-qPCR mRNA expression in dHepaRG cells; format: cell-based, human
Method: as §2

[6] = tested on: SREBP-2 (F); test: Western blot protein level in dHepaRG cells; format: cell-based, human; settings: single exposure
Method: (§1) All the treatments were performed in triplicates. Protein concentration was measured using the bicinchoninic acid (BCA) protein assay (Sigma Aldrich, Prague, Czech Republic) according to the manufacturer’s instructions. The proteins were loaded onto a 10% sodium dodecyl sulfate (SDS; w/v)–polyacrylamide gel (with 4% stacking gel) and separated by SDS-PAGE electrophoresis. The proteins were transferred onto a nitrocellulose membrane using wet blot (100 V, 90 min). The membrane blocking was performed in a 5% non-fat dry milk/TRIS-buffered saline-Tween-20 (TBS-T) solution at room temperature for 2 h. Incubation with primary antibodies was accomplished overnight at 10 °C. β-actin was used as housekeeping protein (the list of primary antibodies in Table S2). Afterwards, the membrane was washed with 0.05% TBS-T solution for 6 × 5 min, incubated with respective secondary antibodies conjugated with horseradish peroxidase (bovine anti-rabbit (sc2370, Santa Cruz Biotechnology, Santa Cruz, CA, USA) at room temperature for 1.5 h, and rinsed with TBS-T solution for 6 × 5 min. Visualization of protein bands was carried out using a chemiluminescence kit (GE Healthcare, Buckinghamshire, UK).

[7] = tested on: ICAM-1; test: Western blot protein level in dHepaRG cells; format: cell-based, human
Method: as §1

[8] = tested on: ICAM-1 mRNA; test: RT-qPCR mRNA expression in dHepaRG cells; format: cell-based, human; settings: the highest concentration
Method: Three concentrations were selected for each compound (non-toxic, non-toxic/slightly toxic and toxic). […] The expression changes of genes and proteins related to cholesterol metabolism were measured in both single and multiple exposure experiments.
as §3

[9] = tested on: U87; settings: U87, 24 h, read-out: Previously Reported IC50 Values (24 h), cited from earlier work
[10] = single exposure, 6, 12 and 24 h
[11] = dHepaRG cell viability, 24 h single exposure, read-out: IC50 ± SD, MTT
[12] = dHepaRG cell viability, 72 h single exposure, read-out: IC50 ± SD, MTT
[13] = dHepaRG cells, 24-h treatment, read-out: half-maximal inhibitory concentration of cell viability (approximate)
[14] = single exposure, toxic concentration after 24 h

With C=C1C(=O)O[C@@H]2C[C@@]3(C)CCC[C@H](C)C3=C[C@H]12 [ATL, alantolactone] the “SREBP-1c mRNA” value [1, 10] was “dysregulated”, the “PLIN4 mRNA level” value [2] was “decreased” and the “toxicity toward dHepaRG cells compared with cancer cells” value [3] was “significantly lesser toxicity”. The IC50 [3, 11] was 58.9 ± 3.5 µM, the IC50 [3, 12] was 57.2 ± 1 µM and the highest non-toxic concentration ([3]; dHepaRG cells) was 30 µM. The IC50 [3, 13] was roughly 60 µM, the cell viability ([3]; dHepaRG cells) was “concentration-dependent decrease in the cell viability” and the “CYP3A4 mRNA expression” value [4] was “induced”. For the same molecule, the “PPARα mRNA expression” value [5, 14] was “inhibited”, the “functional SREBP-2 (F) protein level” value ([6]; the highest concentration) was “significantly decreased” and the ICAM-1 protein amount ([7]; all concentrations after 12-h exposure) was “significantly decreased”. The “ICAM-1 mRNA amount” value ([8]; 12-h and 24-h exposure) was “induced”, the IC50 ([9]; ref 10) was 20 µM and the IC50 ([9]; ref 34) was 33 µM.
In the case of CC(C)=C1C/C=C(\C)CC/C=C(\C)CC1=O [GER, germacrone], the “SREBP-1c mRNA” value [1, 14] is reported as “inhibited”, the “PLIN4 mRNA level” value [2] is reported as “no significant change” and the “toxicity toward dHepaRG cells compared with cancer cells” value [3] is reported as “similar”. For the same molecule, the IC50 [3, 11] was 256 ± 5.7 µM, the IC50 [3, 12] was 242 ± 17.4 µM and the highest non-toxic concentration ([3]; dHepaRG cells) was 100 µM. For the same molecule, the IC50 [3, 13] was roughly 250 µM, the cell viability ([3]; dHepaRG cells) was “concentration-dependent decrease in the cell viability” and the “CYP3A4 mRNA expression” value [4] was “induced”. The “PPARα mRNA expression” value [5, 10] was “no effect”, the “functional SREBP-2 (F) protein level” value ([6]; 12-h exposure) was “increase” and the “functional SREBP-2 (F) protein level” value ([6]; 24-h exposure) was “no change in protein level”. The ICAM-1 protein amount ([7]; the higher concentrations after 12 and 24-h exposure) was “significantly decreased”, the “ICAM-1 mRNA amount” value ([8]; 6-h and 12-h exposure) was “induced” and the IC50 ([9]; ref 36) was 175 µM.
